# Values joined by “and” are separate entries in the source; they are usually repeats but may differ in a detail not shown here. Identical values can stand only once. Marks after values point to notes of the source that are not given here. Non-standard residues stand in square brackets, D forms with d. Residues, ends and D or L forms follow the SMILES beside them. *: point of attachment. Asu = N[C@@H](CCCCCC(=O)O)C(=O)O; NHOH = ON*
# Legend:
# [1] = biological target: T1, HDAC8 (Homo sapiens, UniProt Q9BY41); test: HDAC inhibition assay (fluorogenic, Ac-Leu-Gly-Lys(Tfa)-AMC); type: biochemical; conditions: for HDAC8 dose-response data (relative enzyme activity, replicate values), Fig. 6 + S. Fig. 10: two replicate columns per inhibitor; for HDAC8 dose-response data (relative enzyme activity), Fig. 6 + S. Fig. 10: duplicate columns
# T1 construct: HDAC8 (full length, C-terminal His tag, BPS Bioscience, cat. #: 50008); purchased BPS Bioscience 50008
# T1 sequence (Q9BY41 1-377): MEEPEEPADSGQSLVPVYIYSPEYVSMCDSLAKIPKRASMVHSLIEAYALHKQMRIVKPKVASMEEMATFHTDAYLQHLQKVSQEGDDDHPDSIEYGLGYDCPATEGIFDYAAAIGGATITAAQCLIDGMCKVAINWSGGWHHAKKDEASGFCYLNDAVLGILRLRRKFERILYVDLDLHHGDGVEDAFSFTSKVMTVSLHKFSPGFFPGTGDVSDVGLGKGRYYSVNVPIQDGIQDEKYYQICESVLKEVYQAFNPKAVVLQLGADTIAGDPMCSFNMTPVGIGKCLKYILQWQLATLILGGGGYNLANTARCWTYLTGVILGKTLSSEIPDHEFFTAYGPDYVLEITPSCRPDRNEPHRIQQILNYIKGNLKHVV
# [2] = biological target: T2, HDAC3/NCoR2 (Homo sapiens, UniProt O15379); test: Recombinant HDAC µSPOT microarray binding assay;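 note: peptide spots on cellulose slides incubated with rising HDAC enzyme concentrations, imaged together, four-parameter logistic fit, EC50 is enzyme concentration giving half-maximal binding signal, two experiments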
# T2 construct: HDAC3/NCoR2 (full length, C-terminal His tag, NCoR2 N-terminal GST tag); purchased BPS Bioscience 50003
# [3] = biological target: T2, HDAC3/NCoR2; test: HDAC inhibition assay (fluorogenic, Ac-Leu-Gly-Lys(Ac)-AMC); type: biochemical; conditions: for HDAC3 dose-response data (relative enzyme activity), Fig. 6 + S. Fig. 10: duplicate columns
# [4] = biological target: T3, HDAC1 (Homo sapiens, UniProt Q13547); test: as above; type: biochemical; conditions: for HDAC1 dose-response data (relative enzyme activity), Fig. 6 + S. Fig. 10: duplicate columns
# T3 construct: HDAC1 (full length, C-terminal His tag, C-terminal FLAG tag, BPS Bioscience, cat. #: 50051); FLAG (C); purchased BPS Bioscience 50051
# [5] = biological target: T3, HDAC1; test: Recombinant HDAC µSPOT microarray binding assay
# [6] = biological target: T1, HDAC8; test: Recombinant HDAC µSPOT microarray binding assay
# Experimental: Experiments were performed twice, data were obtained with Array Analyze software (Active Motif), and data analysis and representation were performed with the GraphPad Prism 7 software. Outliers were curated manually and data were fitted to nonlinear regression [log(agonist) vs. response—variable slope (four parameters)]. […] Non-sigmoidal curves were denoted as not determined (N.D.) The pEC50 values were determined as the concentration of HDAC enzyme required for half-maximal binding signal.
# [7] = biological target: T4, HDAC6 (Homo sapiens, UniProt Q9UBN7); test: HDAC inhibition assay (fluorogenic, Ac-Leu-Gly-Lys(Ac)-AMC); type: biochemical; conditions: HDAC6, replicates
# T4 construct: HDAC6 (full length, BPS Bioscience, cat. #: 50056); purchased BPS Bioscience 50056
# T4 sequence (Q9UBN7 1-1215): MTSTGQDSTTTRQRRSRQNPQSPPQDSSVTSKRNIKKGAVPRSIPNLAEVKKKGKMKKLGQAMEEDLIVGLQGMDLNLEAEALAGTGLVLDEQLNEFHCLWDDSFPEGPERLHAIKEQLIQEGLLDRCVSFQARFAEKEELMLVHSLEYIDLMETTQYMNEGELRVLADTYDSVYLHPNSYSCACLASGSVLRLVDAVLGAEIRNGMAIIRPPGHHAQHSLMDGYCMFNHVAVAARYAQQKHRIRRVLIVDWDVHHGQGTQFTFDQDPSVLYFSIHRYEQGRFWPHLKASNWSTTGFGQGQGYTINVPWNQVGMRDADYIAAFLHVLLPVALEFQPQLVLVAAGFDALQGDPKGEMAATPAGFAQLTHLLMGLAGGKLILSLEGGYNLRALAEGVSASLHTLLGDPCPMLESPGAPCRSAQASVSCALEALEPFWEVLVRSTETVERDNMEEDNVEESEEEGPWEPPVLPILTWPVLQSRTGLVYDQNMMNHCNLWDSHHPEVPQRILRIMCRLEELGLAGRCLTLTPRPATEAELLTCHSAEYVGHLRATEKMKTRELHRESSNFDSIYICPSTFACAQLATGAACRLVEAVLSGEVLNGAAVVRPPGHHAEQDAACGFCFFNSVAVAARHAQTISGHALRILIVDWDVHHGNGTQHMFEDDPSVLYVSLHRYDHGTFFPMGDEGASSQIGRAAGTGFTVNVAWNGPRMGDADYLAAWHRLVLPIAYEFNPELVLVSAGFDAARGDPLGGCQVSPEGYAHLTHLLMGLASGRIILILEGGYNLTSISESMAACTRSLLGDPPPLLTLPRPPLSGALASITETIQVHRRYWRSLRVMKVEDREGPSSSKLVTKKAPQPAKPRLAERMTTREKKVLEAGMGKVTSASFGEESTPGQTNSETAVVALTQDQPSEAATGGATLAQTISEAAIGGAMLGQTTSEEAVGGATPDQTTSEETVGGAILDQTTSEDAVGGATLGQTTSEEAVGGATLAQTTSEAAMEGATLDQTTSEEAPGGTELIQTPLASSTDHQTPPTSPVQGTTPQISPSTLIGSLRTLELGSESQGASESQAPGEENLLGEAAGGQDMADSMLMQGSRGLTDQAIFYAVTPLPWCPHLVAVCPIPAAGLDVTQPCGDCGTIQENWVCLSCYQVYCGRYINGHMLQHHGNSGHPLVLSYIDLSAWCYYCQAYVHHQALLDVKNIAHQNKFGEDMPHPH
# [8] = biological target: T5, HDAC4 (Homo sapiens, UniProt P56524); test: HDAC inhibition assay (fluorogenic, Ac-Leu-Gly-Lys(Tfa)-AMC); type: biochemical; conditions: 2 internal replicates
# T5 construct: purchased BPS Bioscience 50004
# [9] = log[inhibitor(M)] -10,5850266520292*, whole line marked with asterisks
# T2 sequence (O15379 whole entry): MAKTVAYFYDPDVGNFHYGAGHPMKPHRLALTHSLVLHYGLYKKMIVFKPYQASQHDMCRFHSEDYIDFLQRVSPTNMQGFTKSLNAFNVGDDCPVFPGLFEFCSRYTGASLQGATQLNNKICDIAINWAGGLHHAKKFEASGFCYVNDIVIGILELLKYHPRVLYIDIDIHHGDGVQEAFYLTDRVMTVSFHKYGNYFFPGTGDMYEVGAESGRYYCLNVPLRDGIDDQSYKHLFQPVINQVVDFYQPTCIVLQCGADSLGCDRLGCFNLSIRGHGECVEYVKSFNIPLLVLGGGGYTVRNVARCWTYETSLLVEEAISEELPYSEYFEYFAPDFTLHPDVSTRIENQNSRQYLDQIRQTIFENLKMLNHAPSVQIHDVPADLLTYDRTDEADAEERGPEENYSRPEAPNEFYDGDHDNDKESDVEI
# T2 sequence (Q9Y618 389-480 partner limits assumed): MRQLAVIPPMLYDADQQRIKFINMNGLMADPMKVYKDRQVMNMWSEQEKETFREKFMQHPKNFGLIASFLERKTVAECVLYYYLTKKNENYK
# T5 sequence (P56524 627-1084): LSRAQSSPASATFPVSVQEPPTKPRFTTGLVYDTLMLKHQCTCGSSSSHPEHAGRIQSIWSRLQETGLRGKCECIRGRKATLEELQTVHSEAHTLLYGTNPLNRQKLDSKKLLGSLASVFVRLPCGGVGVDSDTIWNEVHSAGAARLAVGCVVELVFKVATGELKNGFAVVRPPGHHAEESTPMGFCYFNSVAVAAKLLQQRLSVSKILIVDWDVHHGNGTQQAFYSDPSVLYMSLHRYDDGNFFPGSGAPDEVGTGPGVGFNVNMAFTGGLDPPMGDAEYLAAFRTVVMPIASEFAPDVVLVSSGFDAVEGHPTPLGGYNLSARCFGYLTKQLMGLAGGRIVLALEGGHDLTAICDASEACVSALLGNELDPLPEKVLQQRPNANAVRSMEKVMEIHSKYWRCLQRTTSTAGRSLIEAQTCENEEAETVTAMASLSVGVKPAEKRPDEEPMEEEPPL
# T3 sequence (Q13547 whole entry): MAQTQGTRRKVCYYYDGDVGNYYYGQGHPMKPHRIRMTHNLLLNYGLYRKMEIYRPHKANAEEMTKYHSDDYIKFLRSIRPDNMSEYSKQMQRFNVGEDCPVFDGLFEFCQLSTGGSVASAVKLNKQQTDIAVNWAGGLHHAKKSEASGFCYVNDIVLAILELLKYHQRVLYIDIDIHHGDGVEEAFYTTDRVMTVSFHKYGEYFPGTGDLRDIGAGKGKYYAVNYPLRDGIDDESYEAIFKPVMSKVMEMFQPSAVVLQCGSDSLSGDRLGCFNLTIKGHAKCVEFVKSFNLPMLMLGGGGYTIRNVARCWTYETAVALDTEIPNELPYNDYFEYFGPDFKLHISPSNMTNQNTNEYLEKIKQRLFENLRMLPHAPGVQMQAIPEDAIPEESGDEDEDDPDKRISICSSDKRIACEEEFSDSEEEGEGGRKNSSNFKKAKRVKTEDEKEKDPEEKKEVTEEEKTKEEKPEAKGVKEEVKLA
compound,measurement,setting,value
CC(=O)N[C@@H](C)C(=O)N1CCC[C@H]1C(=O)N[C@@H](C)C(=O)N1CCC[C@H]1C(=O)N[C@@H](CCCCN)C(=O)N[C@@H](CCCCCC(=O)NO)C(=O)NCC(=O)N[C@@H](CO)C(=O)N[C@@H](CCCCN)C(=O)N[C@@H](CCCCN)C(=O)N[C@@H](C)C(=O)N[C@H](C(=O)N[C@H](C(=O)N[C@@H](CCCCN)C(=O)N[C@@H](C)C(=O)N[C@@H](CCC(N)=O)C(=O)N[C@@H](Cc1c[nH]c2ccccc12)C(N)=O)[C@@H](C)O)C(C)C [10a] (Ac-APAPK[Asu](NHOH)GSKKAVTKAQW-NH2),Ki,[1],2240 ± 20 nM
same,"HDAC8 dose-response data (relative enzyme activity, replicate values), Fig. 6 + S. Fig. 10",[1]; Inhibitor conc [M] -8.49485 (log),108.857 and 102.18
same,"HDAC8 dose-response data (relative enzyme activity, replicate values), Fig. 6 + S. Fig. 10",[1]; Inhibitor conc [M] -9.19382 (log),106.186 and 101.221
same,"HDAC8 dose-response data (relative enzyme activity, replicate values), Fig. 6 + S. Fig. 10",[1]; Inhibitor conc [M] given as -7.09691 (log),102.611 and 104.497
same,"HDAC8 dose-response data (relative enzyme activity, replicate values), Fig. 6 + S. Fig. 10",[1]; Inhibitor conc [M] given as -7.79588 (log),103.781 and 99.0423
same,"HDAC8 dose-response data (relative enzyme activity, replicate values), Fig. 6 + S. Fig. 10",[1]; Inhibitor conc [M] given as -9.89279 (log),110.267 and 101.97
same,"HDAC8 dose-response data (relative enzyme activity), Fig. 6 + S. Fig. 10",[1]; Inhibitor conc [M] -3.60206,2.527 and 3.969
same,"HDAC8 dose-response data (relative enzyme activity), Fig. 6 + S. Fig. 10",[1]; Inhibitor conc [M] -4.30103,9.773 and 11.8218
same,"HDAC8 dose-response data (relative enzyme activity), Fig. 6 + S. Fig. 10",[1]; Inhibitor conc [M] -5,29.4256 and 37.404
same,"HDAC8 dose-response data (relative enzyme activity), Fig. 6 + S. Fig. 10",[1]; Inhibitor conc [M] -5.69897,62.2051 and 60.7878
same,"HDAC8 dose-response data (relative enzyme activity), Fig. 6 + S. Fig. 10",[1]; Inhibitor conc [M] -6.39794,91.1582 and 94.1836
same,EC50,[2],3.09 nM
same,Ki,[3],51.2 ± 0.9 nM
same,"HDAC3 dose-response data (relative enzyme activity), Fig. 6 + S. Fig. 10",[3]; log[inhibitor(M)] -4.30103,2.766 and 1.97
same,"HDAC3 dose-response data (relative enzyme activity), Fig. 6 + S. Fig. 10",[3]; log[inhibitor(M)] -5,10.2945 and 7.913
same,"HDAC3 dose-response data (relative enzyme activity), Fig. 6 + S. Fig. 10",[3]; log[inhibitor(M)] -5.69897,26.7937 and 20.8193
same,"HDAC3 dose-response data (relative enzyme activity), Fig. 6 + S. Fig. 10",[3]; log[inhibitor(M)] -6.39794,46.8605 and 38.5396
same,"HDAC3 dose-response data (relative enzyme activity), Fig. 6 + S. Fig. 10",[3]; log[inhibitor(M)] -7.09691,73.2021 and 63.7098
same,"HDAC3 dose-response data (relative enzyme activity), Fig. 6 + S. Fig. 10",[3]; log[inhibitor(M)] -7.79588,98.3444 and 77.95
same,"HDAC3 dose-response data (relative enzyme activity), Fig. 6 + S. Fig. 10",[3]; log[inhibitor(M)] -8.49485,104.594 and 95.6609
same,"HDAC3 dose-response data (relative enzyme activity), Fig. 6 + S. Fig. 10",[3]; log[inhibitor(M)] -9.19382,108.819 and 98.0987
same,"HDAC3 dose-response data (relative enzyme activity), Fig. 6 + S. Fig. 10",[3]; log[inhibitor(M)] -9.89279,107.136 and 105.407
same,"HDAC3 dose-response data (relative enzyme activity), Fig. 6 + S. Fig. 10",[3]; [9],"106,9896* and 85,1199*"
same,Ki,[4],111 ± 2 nM
same,"HDAC1 dose-response data (relative enzyme activity), Fig. 6 + S. Fig. 10",[4]; log[inhibitor(M)] -4.30103,5.334 and 4.212
same,"HDAC1 dose-response data (relative enzyme activity), Fig. 6 + S. Fig. 10",[4]; log[inhibitor(M)] -5.69897,29.499 and 30.3493
same,"HDAC1 dose-response data (relative enzyme activity), Fig. 6 + S. Fig. 10",[4]; log[inhibitor(M)] -6.39794,63.3422 and 57.5642
same,"HDAC1 dose-response data (relative enzyme activity), Fig. 6 + S. Fig. 10",[4]; log[inhibitor(M)] -7.09691,92.4396 and 86.4688
same,"HDAC1 dose-response data (relative enzyme activity), Fig. 6 + S. Fig. 10",[4]; log[inhibitor(M)] -7.79588,116.265 and 84.5085
same,"HDAC1 dose-response data (relative enzyme activity), Fig. 6 + S. Fig. 10",[4]; log[inhibitor(M)] -8.49485,113.205 and 105.123
same,"HDAC1 dose-response data (relative enzyme activity), Fig. 6 + S. Fig. 10",[4]; log[inhibitor(M)] -9.19382,116.621 and 108.226
same,"HDAC1 dose-response data (relative enzyme activity), Fig. 6 + S. Fig. 10",[4]; log[inhibitor(M)] -9.89279,112.611 and 105.771
same,"HDAC1 dose-response data (relative enzyme activity), Fig. 6 + S. Fig. 10",[4]; [9],"102,7345* and 100,1809*"
same,EC50,[5],8.71 nM
same,EC50,[6],> 25.1 nM
same,residual enzymatic activity relative to control wells,[7]; log[inhibitor(M)] -4.30103,1.4 and 0.93
same,residual enzymatic activity relative to control wells,[7]; log[inhibitor(M)] -5,3.09 and 2.23
same,residual enzymatic activity relative to control wells,[7]; log[inhibitor(M)] -5.69897,13.76 and 8.98
same,residual enzymatic activity relative to control wells,[7]; log[inhibitor(M)] -6.39794,36.89 and 30.05
same,residual enzymatic activity relative to control wells,[7]; log[inhibitor(M)] -7.09691,68.83 and 58.89
same,residual enzymatic activity relative to control wells,[7]; log[inhibitor(M)] -7.79588,90.1 and 83.16
same,residual enzymatic activity relative to control wells,[7]; log[inhibitor(M)] -8.49485,98.1 and 88.82
same,residual enzymatic activity relative to control wells,[7]; log[inhibitor(M)] -9.19382,100.25 and 95.78
same,residual enzymatic activity relative to control wells,[7]; log[inhibitor(M)] -9.89279,102.47 and 98.2
same,residual enzymatic activity relative to control wells,[7]; log[inhibitor(M)] -10.585,"99,94* and 98,05*"
same,residual enzymatic activity relative to control wells,[8]; inhibitor 5 µM,95.93
same,remaining activity at 5 µM,"[8]; inhibitor 5 µM, read-out: residual enzymatic activity relative to control wells",100%
same,residual enzymatic activity relative to control wells,[8]; inhibitor 50 µM,77.53
same,remaining activity at 50 µM,"[8]; inhibitor 50 µM, read-out: residual enzymatic activity relative to control wells",80.4%
